According to ChEMBL document CHEMBL5512645, “A novel antimicrobial peptide with broad-spectrum and exceptional stability derived from the natural peptide Brevicidine” (Eur J Med Chem, 2024):
≈ marks a conversion by molar mass, not a printed value. Each block holds one compound with its values, some of them ahead of it. Calls of active or inactive are those of the source. The rule behind the calls is not given here. Bridge positions count the residues as written; N and C are the ends. Square brackets hold non-standard residues; d marks the D form. Peptide text beside a SMILES is read from it. * marks the point of attachment. ξ: configuration not given here. Hexanoyl(4ξ-Me) = CCC(C)CCC(=O)*; dOrn = NCCC[C@@H](N)C(=O)O; Orn = NCCC[C@H](N)C(=O)O

Columns and labels:
[1] = Toxicity in male BALB/c mouse assessed as survival rate at 29.2 mg/kg, ip measured after 7 days relative to control; format: organism-based; details: in vivo, time 7 day
[2] = system: Staphylococcus aureus; assay: Antibacterial activity against Staphylococcus aureus ATCC 25923 assessed as fold increase in MIC pretreated with FeCl3 followed by compound addition and measured after 2 hrs by broth microdilution method; format: functional
[3] = Toxicity in male BALB/c mouse assessed as survival rate at 132.7 mg/kg, ip measured after 6 days relative to control; format: organism-based; details: in vivo, time 6 day
[4] = system: Staphylococcus aureus; assay: Antibacterial activity against Staphylococcus aureus ATCC 25923 pretreated with 5% mouse serum followed by compound addition and measured after 6 hrs by broth microdilution method (reference value: 8 microM); format: functional
[5] = Toxicity in male BALB/c mouse assessed as survival rate at 62.6 mg/kg, ip measured after 6 days relative to control; format: organism-based; details: in vivo, time 6 day
[6] = system: Staphylococcus aureus; assay: Antibacterial activity against Staphylococcus aureus ATCC 25923 assessed as fold increase in MIC pretreated with 2.5 to 20% mouse serum followed by compound addition and measured after 1 to 6 hrs by broth microdilution method; format: functional; details: time 1-6 hrs
[7] = system: Pseudomonas aeruginosa; assay: Induction of morphological changes in Pseudomonas aeruginosa ATCC 27853 assessed as aggregation at 2 times MIC measured after 0.5 hrs by SEM based analysis; format: functional, organism-based
[8] = system: Staphylococcus aureus; assay: Antibacterial activity against Staphylococcus aureus ATCC 25923 assessed as fold increase in MIC pretreated with KCl followed by compound addition and measured after 2 hrs by broth microdilution method; format: functional
[9] = system: Staphylococcus aureus; assay: Antibacterial activity against Staphylococcus aureus ATCC 25923 pretreated with Mgcl2 followed by compound addition and measured after 2 hrs by broth microdilution method (reference value: 8 microM); format: functional
[10] = system: Staphylococcus aureus; assay: Antibacterial activity against Staphylococcus aureus ATCC 25923 pretreated with 10% mouse serum followed by compound addition and measured after 6 hrs by broth microdilution method (reference value: 8 microM); format: functional
[11] = system: Staphylococcus aureus; assay: In vivo antibacterial activity against Staphylococcus aureus ATCC 25923 infected in BALB/c mouse model assessed as reduction in bacterial count in liver at 10 mg/kg, ip preadministered with compound for 1 hr followed by bacterial infection and measured after 6 hrs […]; format: functional, organism-based; details: time 7.0 hrs
[12] = system: Staphylococcus aureus; assay: Antibacterial activity against Staphylococcus aureus ATCC 25923 pretreated with FeCl3 followed by compound addition and measured after 2 hrs by broth microdilution method (reference value: 8 microM); format: functional
[13] = Toxicity in male BALB/c mouse assessed as hemorrhage in liver at 46.88 mg/kg, ip administered as single dose by H and E staining based analysis; format: organism-based; details: in vivo
[14] = system: Staphylococcus aureus; assay: Antibacterial activity against Staphylococcus aureus ATCC 25923 assessed as fold increase in MIC pretreated with 2.5 to 20% mouse serum followed by compound addition and measured after 1 hr by broth microdilution method; format: functional
[15] = system: Cell membrane; assay: Induction of outer membrane permeabilization in Pseudomonas aeruginosa ATCC 27853 assessed increase in fluorescence intensity at 1 MIC measured upto 12 mins by fluorescence based NPN uptake assay; format: cell membranes
[16] = system: Staphylococcus aureus; assay: Antibacterial activity against Staphylococcus aureus ATCC 25923 pretreated with Na-cl followed by compound addition and measured after 2 hrs by broth microdilution method (reference value: 64 microM); format: functional
[17] = system: Staphylococcus aureus; assay: Antibacterial activity against Staphylococcus aureus ATCC 25923 pretreated with 20% mouse serum followed by compound addition and measured after 6 hrs by broth microdilution method (reference value: 64 microM); format: functional
[18] = system: Staphylococcus aureus; assay: Bactericidal activity against Staphylococcus aureus ATCC 25923 assessed as assessed as eradication of bacterial cells at 1/2 to 4 times MIC measured after 0.5 hr by time killing analysis; format: functional, organism-based
[19] = system: Cell membrane; assay: Induction of cytoplasmic membrane depolarization in Pseudomonas aeruginosa ATCC 27853 assessed as increase in fluorescence intensity at 2 to 4 times MIC measured upto 12 min by DiSC3-5 dye based fluorescence method; format: cell membranes
[20] = system: Staphylococcus aureus; assay: Antibacterial activity against Staphylococcus aureus ATCC 25923 pretreated with 10% mouse serum followed by compound addition and measured after 6 hrs by broth microdilution method (reference value: 64 microM); format: functional
[21] = system: Staphylococcus aureus; assay: Antibacterial activity against Staphylococcus aureus ATCC 25923 assessed as fold increase in MIC pretreated with Na-cl followed by compound addition and measured after 2 hrs by broth microdilution method; format: functional
[22] = system: Cell membrane; assay: Induction of cytoplasmic membrane depolarization in Pseudomonas aeruginosa ATCC 27853 assessed as increase in fluorescence intensity at 4 times MIC measured upto 12 min by DiSC3-5 dye based fluorescence method; format: cell membranes
[23] = system: Staphylococcus aureus; assay: Antibacterial activity against Staphylococcus aureus ATCC 25923 pretreated with 2.5% mouse serum followed by compound addition and measured after 6 hrs by broth microdilution method (reference value: 16 microM); format: functional, organism-based
[24] = system: Pseudomonas aeruginosa; assay: Bactericidal activity against Pseudomonas aeruginosa ATCC 27853 assessed as assessed as eradication of bacterial cells at 2 to 4 times MIC measured after 0.5 hr by time killing analysis relative to control; format: functional, organism-based
[25] = system: Staphylococcus aureus; assay: Antibacterial activity against Staphylococcus aureus ATCC 25923 pretreated with 20% mouse serum followed by compound addition and measured after 1 hr by broth microdilution method (reference value: 16 microM); format: functional, organism-based
[26] = system: Staphylococcus aureus; assay: Antibacterial activity against Staphylococcus aureus ATCC 25923 pretreated with FeCl3 followed by compound addition and measured after 2 hrs by broth microdilution method (reference value: 16 microM); format: functional, organism-based
[27] = system: Staphylococcus aureus; assay: Antibacterial activity against Staphylococcus aureus ATCC 25923 pretreated with 2.5% mouse serum followed by compound addition and measured after 1 hrs by broth microdilution method (reference value: 16 microM); format: functional, organism-based
[28] = system: Staphylococcus aureus; assay: Antibacterial activity against Staphylococcus aureus ATCC 25923 pretreated with ZnCl2 followed by compound addition and measured after 2 hrs by broth microdilution method (reference value: 16 microM); format: functional, organism-based
[29] = system: Cell membrane; assay: Induction of outer membrane permeabilization in Pseudomonas aeruginosa ATCC 27853 assessed increase in fluorescence intensity measured after 12 mins by fluorescence based NPN uptake assay; format: cell membranes
[30] = system: Staphylococcus aureus; assay: Antibacterial activity against Staphylococcus aureus ATCC 25923 at sub-MIC measured after 6 days; format: functional, organism-based; details: time 6.0 day
[31] = system: Staphylococcus aureus; assay: Antibacterial activity against Staphylococcus aureus ATCC 25923 pretreated with 5% mouse serum followed by compound addition and measured after 1 hr by broth microdilution method (reference value: 16 microM); format: functional, organism-based

Compound: CCCCCCCCCC(=O)N[C@H](CCCN)C(=O)N[C@H](Cc1ccc(O)cc1)C(=O)N[C@H](Cc1c[nH]c2ccccc12)C(=O)N[C@H](CCCN)C(=O)N[C@@H](CCCN)C(=O)NCC(=O)N[C@H](CCCN)C(=O)N[C@@H](Cc1c[nH]c2ccccc12)C(=O)N[C@H](C(=O)N[C@H](C(=O)NCC(=O)N[C@@H](CO)C(=O)O)[C@@H](C)CC)[C@@H](C)O
survival at 168 h [1]: 100% | fold change (FC) [2]: 2 | survival at 144 h [3]: 0% | MIC [4]: 16 µM (≈ 25.3 µg/mL) | survival at 144 h [5]: 12.5% | fold change (FC) [6]: 4 | Activity [7]: Active | fold change (FC) [8]: 2 | MIC [9]: 8 µM (≈ 12.6 µg/mL) | MIC [10]: 32 µM (≈ 50.6 µg/mL) | Activity [11]: Active | MIC [12]: 8 µM (≈ 12.6 µg/mL) | Activity [13]: Toxic

Activity [15]: Active | MIC [16]: 128 µM (≈ 195 µg/mL) | MIC [17]: 128 µM (≈ 195 µg/mL) | Activity [19]: Active | MIC [20]: 128 µM (≈ 195 µg/mL)
Compound: CCC(C)CCC(=O)N[C@H](CC(N)=O)C(=O)N[C@H](Cc1ccc(O)cc1)C(=O)N[C@H](Cc1c[nH]c2ccccc12)C(=O)N[C@H](CCCN)C(=O)N[C@@H](CCCN)C(=O)NCC(=O)N[C@H](CCCN)C(=O)N[C@@H](Cc1c[nH]c2ccccc12)C(=O)N[C@@H]1C(=O)N[C@@H]([C@@H](C)CC)C(=O)NCC(=O)N[C@@H](CO)C(=O)O[C@@H]1C (stereo partly specified) ({Hexanoyl(4ξ-Me)}-[dN][dY][dW][dOrn][Orn]G[dOrn]WTIGS; ester 9-C)
fold change (FC) [14]: 2 | Activity [18]: Active | fold change (FC) [21]: 2

Compound: POLYMYXIN B
Activity [22]: inactive | MIC [23]: 16 µM | Activity [24]: 100% | MIC [25]: 16 µM | MIC [26]: 8 µM | MIC [27]: 16 µM | MIC [28]: 32 µM | Activity [29]: Dose-Dependent Effect | Activity [30]: inactive | MIC [31]: 16 µM
